# Patent US20080113908A1, “Use of CRF receptor agonists for the treatment or Prophylaxis of diseases, for example Neurodegenerative diseases” (SmithKline Beecham plc, priority 2000, published 2008)
# Key:
# [1] = system: cerebellar granule neurones; experiment: Assay 3: intracellular cyclic AMP enzyme immunoassay; type: cell-based, rat; conditions: agonist 0 to 30 nM, 15 min, 0.5 mM IBMX
# Procedure: Assay 3: The production of cAMP by the CRF receptor agonist peptides CRF, urotensin 1, urocortin and sauvagine was measured as follows. This assay can be used analogously for any putative CRF receptor agonists including non-peptide agonists.
# Intracellular cyclic AMP was measured with a cAMP 2-site enzyme immunoassay system (trade mark BIOTRAK, commercially available from Amersham Pharmacia Biotech, PO Box 164, Rainham, Essex RM13 8JZ, United Kingdom, Amersham catalogue number RPN225), based upon the use of a sensitive and highly specific capture antibody for cyclic AMP:
# Cerebellar granule neurones were seeded in polylysine-coated […] plates, 3.5×10^5 cells per 48-well, in Basal medium Eagle's containing 10% fetal calf serum, 25 mM KCl, and antibiotics. At 8-9 days in vitro, granule neurone cultures were shifted to serum-free plating medium (0.4 ml) with 0.5 mM IBMX (to inhibit the breakdown of cyclic AMP) for 15 min (37° C.). Wells then received 0.1 ml of test peptide (5× final concentration). Generally 1 μM is the preferable final concentration for a putative CRF agonist under test, though different (e.g. lower) concentrations can be used as shown for the peptide agonists in FIG. 3. Incubation was continued for 15 min. Test medium was removed and the plate placed on dry ice, and stored at −140° C. Cyclic AMP analysis was performed the following day.
# Cells were then lysed with the reagent provided with the BIOTRAK kit. Intracellular content of cyclic AMP in the lysates was assayed following the manufacturer's instructions. A standard curve was constructed using the cyclic AMP calibration provided, with the quantity of bound cyclic AMP being inversely proportional to the amount of second (chromogenic) antibody bound to the reaction wells. The colour product was read with an ELISA plate reader, and was a function of the amount of cyclic AMP in the unknown sample.
# [2] = molecular target: cerebellar granule neurones; type: cell-based, rat; conditions: 48 h
# Procedure: Cerebellar granule neurones were used in the examples to test neuroprotection by CRF receptor agonists. Cerebellar granule neurones (CGNs) undergo apoptosis during the first few weeks of postnatal life, and in culture require mildly depolarising concentrations of KCl (25 mM) for their survival and maturation (S. R: D'Mello et al., Proc. Natl. Acad. Sci. USA 90, 10989-10993, 1993). The growth signal provided by KCl depends upon activation of the phosphatidylinositol 3-kinase (PI 3-kinase) pathway, and pharmacological inhibition of PI 3-kinase in differentiated granule neurones leads to apoptotic death in the CGNs (T. M. Miller et al., J. Biol. Chem., 272, 9847-9853, 1997). Thus, cultured CGNs represent a suitable model to study mechanisms of programmed cell death, and to identify putative neuroprotective signalling pathways.
# Assay 1: Cerebellar granule neurones prepared from postnatal day 8 Sprague Dawley rat pups were used for experiments on death induced by inhibition of PI 3-kinase. General culture methods are described in S. D. Skaper et al. in Methods in Neurosciences, Vol. 2 (Conn P. M., ed), pp. 17-33. Academic Press, San Diego, 1990. At 8-9 days in vitro (DIV), granule neurone cultures were shifted to phenol red-free Dulbecco's modified Eagle's medium lacking serum, and containing 0.05% bovine serum albumin and 25 mM KCl. Death was induced by addition of the PI 3-kinase inhibitor LY 294002 (75 μM). CRF or CRF agonist peptides (urotensin 1, urocortin, sauvagine) were added at different concentrations (from 0.3nM to 300 nM or 1000 nM) together with LY 294002. Forty-eight hours later neuronal survival was quantified by a colorimetric reaction MTT. Absolute MTT values obtained were normalised for small differences in interexperiment plating densities by scaling to the mean of sham-treated sister cultures (defined as 100%).
# Results are shown in Table 1 below and in graphical form in FIG. 1, which show the percentage mean neuronal survival (and standard deviation), when in the presence of the relevant CRF receptor agonists and LY 294002, as a function of agonist concentration. […] Urotensin 1, urocortin and sauvagine were also neuroprotective albeit with lower potency (<1 μM).
substance,measurement,setting,value
H-SQEPPISLDLTFHLLREVLEMTKADQLAQQAHNNRKLLDIA-NH2 [CRF],cAMP synthesis induced by agonist (FIG. 3),[1],cAMP production increased with agonist concentration
same,EC50,[2],~10 nM
